In US20150105252A1, “SUBSTITUTED PYRAZOLES AS HERBICIDES” (E I DU PONT DE NEMOURS AND COMPANY, priority 2013, published 2015):

Columns and labels:
crabgrass, large [1] = assay: Test A preemergence; format: in vivo, Digitaria sanguinalis; details: preemergence
Summary of the method: (§1)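 Injury readout: eye-scored versus untreated controls, 0 to 100. Exposure period: ~10 days, greenhouse. Application: soil-directed spray over sown seed (pre) or spray on seedlings 2–10 cm tall with one or two leaves (post), compound carried in non-phytotoxic solvent including surfactant.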

corn [2] = assay: Test A preemergence; format: in vivo, Zea mays; details: preemergence
Summary of the method: as §1

barnyardgrass [3] = assay: Test A postemergence; format: in vivo, Echinochloa crus-galli; details: Postemergence
Summary of the method: as §1

sedge, umbrella = assay: Test B flood; format: in vivo, Cyperus difformis; details: 250 g ai/ha, visual rating on 0 to 100 scale (0 no effect, 100 complete control), 13 to 15 days
Summary of the method: (§2)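 Visual ratings (0 = no effect, 100 = complete control) versus untreated controls were taken 13–15 days after treatment of greenhouse plants. Treatment was added to paddy water held at 3 cm depth on 2-leaf-stage seedlings.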

wheat [4] = assay: Test A preemergence; format: in vivo, Triticum aestivum; details: preemergence
Summary of the method: as §1

corn [5] = assay: Test A postemergence; format: in vivo, Zea mays
Summary of the method: as §1

barnyardgrass [6] = assay: Test A preemergence; format: in vivo, Echinochloa crus-galli; details: preemergence
Summary of the method: as §1

crabgrass, large [7] = assay: Test A postemergence; format: in vivo, Digitaria sanguinalis
Summary of the method: as §1

pigweed [8] = assay: Test A preemergence; format: in vivo, Amaranthus retroflexus; details: preemergence
Summary of the method: as §1

pigweed [9] = assay: Test A postemergence; format: in vivo, Amaranthus retroflexus
Summary of the method: as §1

morningglory [10] = assay: Test A preemergence; format: in vivo, Ipomoea spp.; details: preemergence
Summary of the method: as §1

velvetleaf [11] = assay: Test A preemergence; format: in vivo, Abutilon theophrasti; details: preemergence
Summary of the method: as §1

morningglory [12] = assay: Test A postemergence; format: in vivo, Ipomoea spp.
Summary of the method: as §1

wheat [13] = assay: Test A postemergence; format: in vivo, Triticum aestivum
Summary of the method: as §1

rice = assay: Test B flood; format: in vivo, Oryza sativa; details: 250 g ai/ha, visual rating on 0 to 100 scale (0 no effect, 100 complete control), 13 to 15 days
Method: (§3) Seeds selected from rice (Oryza sativa), sedge, umbrella (small-flower umbrella sedge Cyperus difformis), ducksalad (Heteranthera limosa), and barnyardgrass (Echinochloa crus-galli) were grown to the 2-leaf stage for testing. At time of treatment, test pots were flooded to 3 cm above the soil surface, treated by application of test compounds directly to the paddy water, and then maintained at that water depth for the duration of the test.
(§4) Treated plants and controls were maintained in a greenhouse for 13 to 15 days, after which time all species were compared to controls and visually evaluated. Plant response ratings, summarized in Table B, are based on a scale of 0 to 100 where 0 is no effect and 100 is complete control. A dash (-) response means no test result.

barnyardgrass [14] = assay: Test B flood; format: in vivo, Echinochloa crus-galli; details: 250 g ai/ha, visual rating on 0 to 100 scale (0 no effect, 100 complete control), 13 to 15 days
Method: as §3, §4

velvetleaf [15] = assay: Test A postemergence; format: in vivo, Abutilon theophrasti
Summary of the method: as §1

foxtail, giant [16] = assay: Test A postemergence; format: in vivo, Setaria faberii
Summary of the method: as §1

foxtail, giant [17] = assay: Test A preemergence; format: in vivo, Setaria faberii; details: preemergence
Summary of the method: as §1

ducksalad = assay: Test B flood; format: in vivo, Heteranthera limosa; details: 250 g ai/ha, visual rating on 0 to 100 scale (0 no effect, 100 complete control), 13 to 15 days
Summary of the method: as §2

[18] = 125 g ai/ha, visual injury, 0 to 100 scale, approx. 10 days
[19] = 500 g ai/ha, visual injury after approx. 10 days, 0 to 100 scale (0 no effect, 100 complete control)
[20] = 125 g ai/ha, 0 to 100 scale, 0 no effect, 100 complete control
[21] = 500 g ai/ha, visual rating after approx. 10 days, 0 to 100 scale (0 no effect, 100 complete control)
[22] = Postemergence, 500 g ai/ha, visual rating after approx. 10 days, 0 to 100 scale (0 no effect, 100 complete control)
[23] = postemergence, 125 g ai/ha, about 10 days, visual rating on 0 to 100 scale (0 no effect, 100 complete control)

SMILES | Crabgrass, Large plant response rating (crabgrass, large [1]; [18]) | Crabgrass, Large plant response rating (crabgrass, large [1]; [19]) | Corn plant response rating (corn [2]; [18]) | Corn plant response rating (corn [2]; [19]) | Barnyardgrass plant response rating (barnyardgrass [3]; [20]) | Barnyardgrass plant response rating (barnyardgrass [3]; [21]) | Plant response rating, Sedge, Umbrella (sedge, umbrella) | Wheat plant response rating (wheat [4]; [18]) | Wheat plant response rating (wheat [4]; [19]) | Corn plant response rating (corn [5]; [22]) | Corn plant response rating (corn [5]; [23]) | Barnyardgrass plant response rating (barnyardgrass [6]; [18]) | Barnyardgrass plant response rating (barnyardgrass [6]; [19]) | Crabgrass, Large plant response rating (crabgrass, large [7]; [22]) | Crabgrass, Large plant response rating (crabgrass, large [7]; [23]) | Pigweed plant response rating (pigweed [8]; [18]) | Pigweed plant response rating (pigweed [8]; [19]) | Pigweed plant response rating (pigweed [9]; [22]) | Pigweed plant response rating (pigweed [9]; [23]) | Morningglory plant response rating (morningglory [10]; [18]) | further results
CCCCNC(=O)c1cc(CC)n(Oc2ccnc(C(F)(F)F)c2)n1 [Compound 86] | 50 | 80 | 0 | 20 | 0 | 20 | 40 | 0 | 0 | 30 | 10 | 0 | 50 | 50 | 10 | 0 | 0 | 0 | 0 | 0 | Morningglory plant response rating (morningglory [10]; [19]): 20; Velvetleaf plant response rating (velvetleaf [11]; [18]): 0; Velvetleaf plant response rating (velvetleaf [11]; [19]): 0; Morningglory plant response rating (morningglory [12]; [22]): 60; Morningglory plant response rating (morningglory [12]; [23]): 10; Wheat plant response rating (wheat [13]; [22]): 10; Wheat plant response rating (wheat [13]; [23]): 0; Plant response rating, Rice (rice): 0; Plant response rating, Barnyardgrass (barnyardgrass [14]): 0; Velvetleaf plant response rating (velvetleaf [15]; [22]): 40; Velvetleaf plant response rating (velvetleaf [15]; [23]): 30; Foxtail, Giant plant response rating (foxtail, giant [16]; [22]): 40; Foxtail, Giant plant response rating (foxtail, giant [16]; [23]): 10; Foxtail, Giant plant response rating (foxtail, giant [17]; [18]): 0; Foxtail, Giant plant response rating (foxtail, giant [17]; [19]): 80; Plant response rating, Ducksalad (ducksalad): 0
CCc1cc(C(=O)NCC(F)(F)F)nn1Oc1cccc(C(F)(F)F)n1 [Compound 87] | 0 | 80 | 0 | 0 | 0 | 0 | 0 | 0 | 0 | 0 | 0 | 0 | 0 | 10 | 0 | 0 | 40 | 10 | 0 | 0 | Morningglory plant response rating (morningglory [10]; [19]): 10; Velvetleaf plant response rating (velvetleaf [11]; [18]): 0; Velvetleaf plant response rating (velvetleaf [11]; [19]): 0; Morningglory plant response rating (morningglory [12]; [22]): 20; Morningglory plant response rating (morningglory [12]; [23]): 10; Wheat plant response rating (wheat [13]; [22]): 0; Wheat plant response rating (wheat [13]; [23]): 0; Plant response rating, Rice (rice): 0; Plant response rating, Barnyardgrass (barnyardgrass [14]): 0; Velvetleaf plant response rating (velvetleaf [15]; [22]): 10; Velvetleaf plant response rating (velvetleaf [15]; [23]): 0; Foxtail, Giant plant response rating (foxtail, giant [16]; [22]): 0; Foxtail, Giant plant response rating (foxtail, giant [16]; [23]): 0; Foxtail, Giant plant response rating (foxtail, giant [17]; [18]): 0; Foxtail, Giant plant response rating (foxtail, giant [17]; [19]): 0; Plant response rating, Ducksalad (ducksalad): 0
CCCc1cc(C(=O)NCC(F)(F)F)nn1Oc1ccnc(C(F)(F)F)c1 [Compound 92] | 20 | 100 | 0 | 40 | 0 | 40 | 50 | 0 | 20 | 40 | 0 | 0 | 90 | 30 | 0 | 40 | 100 | 40 | 0 | 0 | Morningglory plant response rating (morningglory [10]; [19]): 20; Velvetleaf plant response rating (velvetleaf [11]; [18]): 0; Velvetleaf plant response rating (velvetleaf [11]; [19]): 0; Morningglory plant response rating (morningglory [12]; [22]): 40; Morningglory plant response rating (morningglory [12]; [23]): 0; Wheat plant response rating (wheat [13]; [22]): 20; Wheat plant response rating (wheat [13]; [23]): 0; Plant response rating, Rice (rice): 0; Plant response rating, Barnyardgrass (barnyardgrass [14]): 0; Velvetleaf plant response rating (velvetleaf [15]; [22]): 20; Velvetleaf plant response rating (velvetleaf [15]; [23]): 0; Foxtail, Giant plant response rating (foxtail, giant [16]; [22]): 50; Foxtail, Giant plant response rating (foxtail, giant [16]; [23]): 0; Foxtail, Giant plant response rating (foxtail, giant [17]; [18]): 20; Foxtail, Giant plant response rating (foxtail, giant [17]; [19]): 100; Plant response rating, Ducksalad (ducksalad): 50
